Data set [1] has as its system human cervical carcinoma SiHa. Kind of data set: Proliferation assay (IC50) under aerobic and hypoxic conditions, SiHa. To be noted: for IC50: Homo sapiens, hypoxic, 4 h exposure; for RHT: ratio Tirapazamine/test compound under hypoxic conditions; for HCR: ratio of IC50 under aerobic and hypoxic conditions. In kind it is cell-based. How it is done:
(§1) Evaluation of the Cytotoxicity of Compounds by Proliferation Assay (IC50) Under Aerobic and Hypoxic Conditions.
(§2) Compounds representative of the invention were evaluated under both aerobic and hypoxic conditions in a proliferation assay (IC50), using two cell lines: human colon carcinoma HT-29, and human cervical carcinoma SiHa.
(§3) Drug exposures were performed in 96-well plates (Nunc) using either a 37° C. humidified incubator (20% O2, 5% CO2) or in the incubator compartment (37° C.) of an anaerobic chamber (Shell Lab) where palladium catalyst scrubbed gas (90% N2, 5% H2, 5% CO2) ensures severe anoxia (<0.001% O2). For each experiment, compounds were simultaneously tested under both oxic and hypoxic conditions against the HT-29 cell line and included TPZ as an independent internal control at the front and back of the assay (n=2). Final data was pooled from a series of seven independent experiments and is calculated using inter-experimental means. In all cases, 8-methyl-5-nitroquinoline was used as a second internal control to confirm that strict hypoxia was present during the experiment. (Siim et al. Br. J. Cancer 1994, 70, 596-603). Cell cultures were grown in αMEM (Gibco) containing 5% heat inactivated FCS and maintained in exponential growth phase. For each individual experiment an appropriate number of cells were seeded (HT-29=1000) into wells in αMEM÷10% FCS+10 mM added glucose+100 μM 2′-deoxycytidine (2′dCyd), and allowed to attach for 3 h. High glucose (final concentration 17 mM) and the presence of 2′-dCyd minimize hypoxia-induced cell cycle arrest. Replicates were then exposed to BTOs, using 2-fold serial dilutions in triplicate, for a further 4 h. Subsequently cells were washed free of compound using complete media (without glucose/2′-dCyd) and allowed to grow for 5 (oxic) or 6 (anoxic) days. Plates were stained as described previously (Wilson et al., J. Med. Chem. 1989, 32, 31-38) and IC50 values determined.
(§4) IC50=The concentration of drug (in micromolar) to reduce viable cell numbers to 50% of those of control cell cultures grown under the same conditions but not exposed to drug
(§5) RHT=Relative hypoxic toxicity is defined as the ratio of concentrations of Tirapazamine/test compound to give equal cell killing under hypoxic conditions.
(§6) HCR=Hypoxic cytotoxicity ratio is defined as the ratio of drug concentrations under aerobic and hypoxic condition to produce equal cell survival (50%) determined by proliferation assay

For data set [2], the system named is human colon carcinoma HT-29. Put plainly: Proliferation assay (IC50) under aerobic and hypoxic conditions, HT-29. In kind it is cell-based. To be noted: for RHT: HT-29, ratio Tirapazamine/test compound under hypoxic conditions; for HCR: HT-29, ratio of IC50 under aerobic and hypoxic conditions; for IC50: Homo sapiens, HT-29, hypoxic (anoxia <0.001% O2), 4 h exposure. How it is done:
as §1, §2, §3, §4, §5, §6

In data set [3] the test system is murine SCCVII. Put plainly: Clonogenic assay under aerobic and hypoxic conditions, SCCVII. In kind it is cell-based. To be noted: SCVIII cells; for IC90: Mus musculus, 1 h, hypoxic, 60 min drug exposure, SN (hypoxic), read-out: C10 hypoxic; for HCR: ratio of C10 under aerobic and hypoxic conditions; for RHT: ratio of hypoxic TPZ C10 to hypoxic compound C10. How it is done: Evaluation of the Cytotoxicity of Compounds by Clonogenic Assay Under Aerobic and Hypoxic Conditions.
Compounds representative of the invention were evaluated under both aerobic and hypoxic conditions in clonogenic assays, using three cell lines: human colon carcinoma HT-29, murine SCCVII, and human lung adenocarcinoma LXFL. Clonogenic survival was determined using aerobic and hypoxic SCCVII cell suspensions. Drug exposures were performed using continuously stirred and gassed single cell suspensions (10^6 cells/mL) at 37° C., equilibrated with 5% CO2 in air or N2 for 60 min before drug addition. After a 60 min drug exposure cells were washed by centrifugation and plated to determine colony formation Cytotoxicity was measured as the concentration required to reduce plating efficiency to 10% of controls (C10). The hypoxic cytotoxicity ratio (HCR) was determined as the ratio of the C10 values under aerobic and hypoxic conditions. The relative hypoxic toxicity (RHT) was determined as the ratio of hypoxic TPZ C10 to hypoxic BTO C10. Abbreviations used in Table 2 are:
C10=The concentration of drug (in micromolar) to reduce viable cell numbers to 10% of those of control cell cultures grown under the same conditions but not exposed to drug
as §5
HCR=Hypoxic cytotoxicity ratio is defined as the ratio of drug concentrations under aerobic and hypoxic condition to produce equal cell survival (10%) determined by clonogenic assay

The structures appear in SMILES notation. Where a name gives a salt, the structure may show the parent alone.

`CN(CCNC(=O)c1cccc2cc3ccccc3nc12)CCNc1n[n+]([O-])c2ccccc2[n+]1[O-]` [Compound 95, N-{2-[{2-[(1,4-Dioxido-1,2,4-benzotriazin-3-yl)amino]ethyl}(methyl)amino]ethyl}-4-acridinecarboxamide]: in data set [1], the IC50 (usually the concentration needed to halve the response being measured) worked out at 0.076 µM, the RHT turned out to be 48 and the HCR was 89. Moreover, in data set [2], the RHT is 71, the HCR is given as 74 and the IC50 was 0.18 µM. Further, in data set [3], the IC90 worked out at 1 µM, the HCR turned out to be 400 and the RHT turned out to be 11.

As to `CN(CCCNC(=O)c1cccc2nc3ccccc3nc12)CCCc1n[n+]([O-])c2ccccc2[n+]1[O-]` [Compound 63, N-{3-[[3-(1,4-Dioxido-1,2,4-benzotriazin-3-yl)propyl](methyl)amino]propyl}-1-phenazinecarboxamide], in data set [2], the RHT stood at 167, the HCR was 129 and the IC50 was determined as 0.034 µM.

Take `O=C(NCCCNc1n[n+]([O-])c2ccccc2[n+]1[O-])c1cccc2cc3ccccc3nc12` (as salt: hydrochloride) [Compound 17, N-{3-[(1,4-Dioxido-1,2,4-benzotriazin-3-yl)amino]propyl}-4-acridinecarboxamide]: the melting point (commonly the temperature of the solid-liquid transition) came out at 192 °C.

As for `O=C(NCCOCCNc1n[n+]([O-])c2ccccc2[n+]1[O-])c1cccc2cccnc12` [Compound 24, N-(2-{2-[(1,4-Dioxido-1,2,4-benzotriazin-3-yl)amino]ethoxy}ethyl)-8-quinolinecarboxamide], the melting point lay within 168 to 170 °C.

Molecule `O=C(NCCCCCCNc1n[n+]([O-])c2ccccc2[n+]1[O-])c1cccc2cc3ccccc3nc12` [Compound 12, N-{6-[(1,4-Dioxido-1,2,4-benzotriazin-3-yl)amino]hexyl}-4-acridinecarboxamide] registered a melting point of 196 to 198 °C.

`CN(CCCNC(=O)c1cccc2nc3ccccc3nc12)CCCc1n[n+]([O-])c2ccccc2[n+]1[O-]` (as salt: hydrochloride) [Compound 63, N-{3-[[3-(1,4-Dioxido-1,2,4-benzotriazin-3-yl)propyl](methyl)amino]propyl}-1-phenazinecarboxamide] returned a melting point of 173 °C.

For `O=C(NCCCNc1n[n+]([O-])c2ccccc2[n+]1[O-])c1cccc2cc3ccccc3nc12` [Compound 17, N-{3-[(1,4-Dioxido-1,2,4-benzotriazin-3-yl)amino]propyl}-4-acridinecarboxamide], in data set [3], the IC90 turned out to be 4.8 µM, the HCR is greater than 6.3 and the RHT is on record as 1.94.

`CN(CCCNC(=O)c1cccc2ccc(-c3ccncc3)nc12)CCCNc1n[n+]([O-])c2ccccc2[n+]1[O-]` [Compound 43, N-{3-[{3-[(1,4-dioxido-1,2,4-benzotriazin-3-yl)amino]propyl}(methyl)amino]-propyl}-2-(4-pyridyl)-8-quinolinecarboxamide]: in data set [2], the RHT worked out at 51.4, the HCR worked out at 119 and the IC50 worked out at 0.113 µM. In data set [3], the IC90 turned out to be 1.4 µM, the HCR was determined as 10 and the RHT stood at 5.7.

`CN(CCNC(=O)c1cccc2nc3ccccc3nc12)CCNc1n[n+]([O-])c2ccccc2[n+]1[O-]` [Compound 97, N-{2-[{2-[(1,4-Dioxido-1,2,4-benzotriazin-3-yl)amino]ethyl}(methyl)amino]ethyl}-1-phenazinecarboxamide] gave a melting point of 163 to 165 °C.

In turn, `Cc1ccc2c(c1)[n+]([O-])c(NCCCN(C)CCCNC(=O)c1cccc3nc4ccccc4nc13)n[n+]2[O-]` [Compound 87, N-[3-(Methyl{3-[(6-methyl-1,4-dioxido-1,2,4-benzotriazin-3-yl)amino]propyl}amino)propyl]-1-phenazinecarboxamide] showed a melting point of 111 to 114 °C.

The molecule `O=C(NCCOCCNc1n[n+]([O-])c2ccccc2[n+]1[O-])c1cccc2[nH]c(-c3ccccc3)nc12` [Compound 25, N-(2-{2-[(1,4-Dioxido-1,2,4-benzotriazin-3-yl)amino]ethoxy}ethyl)-2-phenyl-1H-benzimidazole-4-carboxamide] gave a melting point of 203 to 207 °C.

For `CN(CCCNC(=O)c1cccc2cccnc12)CCCNc1n[n+]([O-])c2ccccc2[n+]1[O-]` [Compound 42, N-{3-[{3-[(1,4-Dioxido-1,2,4-benzotriazin-3-yl)amino]propyl}(methyl)amino]propyl}-8-quinolinecarboxamide], in data set [2], the RHT came out at 11.2, the HCR was determined as 86.2 and the IC50 is 0.517 µM.

With `O=C(CCNc1ccnc2cc(Cl)ccc12)NCCCNc1n[n+]([O-])c2ccccc2[n+]1[O-]` [Compound 65, 3-[(7-Chloro-4-quinolinyl)amino]-N-{3-[(1,4-dioxido-1,2,4-benzotriazin-3-yl)amino]propyl}propanamide], the melting point was 202 °C (dec.).

For `O=C(NCCNCCNc1n[n+]([O-])c2ccccc2[n+]1[O-])c1cccc2cc3ccccc3nc12` [Compound 37, N-[2-({2-[(1,4-Dioxido-1,2,4-benzotriazin-3-yl)amino]ethyl}amino)ethyl]-4-acridinecarboxamide], in data set [2], the RHT came to 74, the HCR worked out at 160 and the IC50 turned out to be 0.079 µM.

Turning to `COCCOc1ccc2c(c1)[n+]([O-])nc(NCCCN(C)CCCNC(=O)c1cccc3cc4ccccc4nc13)[n+]2[O-]` [Compound 55, N-{3-[(3-{[7-(2-Methoxyethoxy)-1,4-dioxido-1,2,4-benzotriazin-3-yl]amino}propyl)(methyl)amino]propyl}-4-acridinecarboxamide], in data set [1], half-maximal inhibition (IC50) required 0.05 µM, the RHT is recorded as 72 and the HCR is 124. Besides, in data set [2], the RHT came out at 47, the HCR is reported as 97 and the IC50 worked out at 0.124 µM. Also, in data set [3], the IC90 was determined as 1.1 µM, the HCR is 63.6 and the RHT is listed as 10.

Turning to `CN(CCCNC(=O)c1cccc2cc3ccccc3nc12)CCCc1n[n+]([O-])c2ccccc2[n+]1[O-]` [Compound 62, N-{3-[[3-(1,4-dioxido-1,2,4-benzotriazin-3-yl)propyl](methyl)amino]propyl}-4-acridinecarboxamide], in data set [2], the RHT worked out at 274, the HCR is 157 and the IC50 came to 0.021 µM.

Regarding `Cc1ccc2c(c1)[n+]([O-])c(NCCCN(C)CCCNC(=O)c1cccc3cc4ccccc4nc13)n[n+]2[O-]` [Compound 85, N-[3-(Methyl{3-[(6-methyl-1,4-dioxido-1,2,4-benzotriazin-3-yl)amino]propyl}amino)propyl]-4-acridinecarboxamide], in data set [2], the RHT was 26, the HCR worked out at 134 and it took 0.222 µM to reach half-maximal inhibition (IC50).

With `Cc1cccc2cc3cccc(C(=O)NCCCN(C)CCCNc4n[n+]([O-])c5ccccc5[n+]4[O-])c3nc12` [Compound 44, N-{3-[{3-[(1,4-dioxido-1,2,4-benzotriazin-3-yl)amino]propyl}(methyl)amino]-propyl}-5-methyl-4-acridinecarboxamide], in data set [2], the RHT is 25.7, the HCR was found to be 72.7 and the IC50 came to 0.226 µM. Besides, in data set [3], the IC90 stood at 0.16 µM, the HCR is greater than 187 and the RHT is given as 56.3.

For the origin of these results see patent US20070191372A1, “Dna-targeted benzotriazine 1,4-dioxides and their use in cancer therapy” (Auckland Uniservices Limited, priority 2002, published 2007).
